Reference: ChEMBL document CHEMBL1201862, “PubChem BioAssay data set” (2004)
“And” between values parts separate entries of the source, which are not always exact repeats. Identical values can stand only once.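 Dose response: 5 concentrations. Exposure: 48 h. Format: 96-well plates. Endpoint: linear interpolation; highest concentration if not reached. Abbreviation: GI50, concentration required for 50% inhibition of growth.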 The source made the active and inactive calls. No stated cut-off is given here; in the data, active = GI50 up to about 1.1 µM and inactive = higher.

Assays:
Experiment in all cases: NCI tumour cell line growth inhibition, 48 h
ACHN = test system: ACHN
HCC 2998 = test system: HCC 2998
HCT-116 = test system: HCT-116
HOP-92 = test system: HOP-92
HT-29 = test system: HT-29
KM12 = test system: KM12
Malme-3M = test system: Malme-3M
NCI-H23 = test system: NCI-H23
OVCAR-4 = test system: OVCAR-4
OVCAR-8 = test system: OVCAR-8
RXF 393 = test system: RXF 393
SF-295 = test system: SF-295
SK-MEL-2 = test system: SK-MEL-2
SK-OV-3 = test system: SK-OV-3
SW-620 = test system: SW-620
U-251 = test system: U-251
UACC-257 = test system: UACC-257
UACC-62 = test system: UACC-62
MDA-MB-435 = test system: MDA-MB-435

| SMILES | GI50 (ACHN) | GI50 (HCC 2998) | GI50 (HCT-116) | GI50 (HOP-92) | GI50 (HT-29) | GI50 (KM12) | GI50 (Malme-3M) | GI50 (NCI-H23) | GI50 (OVCAR-4) | GI50 (OVCAR-8) | GI50 (RXF 393) | GI50 (SF-295) | GI50 (SK-MEL-2) | GI50 (SK-OV-3) | GI50 (SW-620) | GI50 (U-251) | GI50 (UACC-257) | GI50 (UACC-62) | GI50 (MDA-MB-435) |
| --- | --- | --- | --- | --- | --- | --- | --- | --- | --- | --- | --- | --- | --- | --- | --- | --- | --- | --- | --- |
| COc1ccc2nc3cccc(C(=O)NCCN(C)C)c3nc2c1 | 0.689 µM (active) | 1.85 µM (inactive) | 0.512 µM (active) | 5.13 µM (inactive) | 0.632 µM (active) | 1.3 µM (inactive) | 0.571 µM (active) | 1.41 µM (inactive) | 1.63 µM (inactive) | 1.46 µM (inactive) | 1.55 µM (inactive) | 2.08 µM (inactive) | 1.59 µM (inactive) | 4.09 µM (inactive) | 0.573 µM (active) | 2.57 µM (inactive) | 2.64 µM (inactive) | 2.24 µM (inactive) | – |
| O=c1c([Se]c2coc3ccccc3c2=O)coc2ccccc12 | 18.2 µM (inactive) | 17.7 µM (inactive) | 3.8 µM (inactive) | 17.6 µM (inactive) | 17.1 µM (inactive) | 11.3 µM (inactive) | 17.8 µM (inactive) | 15.6 µM (inactive) | 16.9 µM (inactive) | 12.7 µM (inactive) | 15.9 µM (inactive) | 2.76 µM (inactive) | 18.2 µM (inactive) | 16.2 µM (inactive) | 19 µM (inactive) | 7.13 µM (inactive) | 17.4 µM (inactive) | 17.1 µM (inactive) | – |
| C[n+]1c2ccccc2c(/C=N\NS(=O)(=O)c2ccc(Cl)cc2)c2ccccc21 | 68.2 µM (inactive) | > 100 µM (inactive) | 33.7 µM (inactive) | 48.8 µM (inactive) | 34 µM (inactive) | 44.2 µM (inactive) | > 100 µM (inactive) | > 100 µM (inactive) | > 100 µM (inactive) | 40.3 µM (inactive) | 57.3 µM (inactive) | 59.4 µM (inactive) | 46.7 µM (inactive) | > 100 µM (inactive) | 39.5 µM (inactive) | 45.8 µM (inactive) | > 100 µM (inactive) | 37.8 µM (inactive) | – |
| C=C1C(=O)OC2CC1C(OC(C)=O)C/C(C)=C/CC/C(C)=C\CCC2(C)O (centres undefined) | 4.23 µM (inactive) and 2.37 µM (inactive) | 7.69 µM (inactive) and 4.74 µM (inactive) | 2.08 µM (inactive) and 2.91 µM (inactive) | 3.65 µM (inactive) and 2.89 µM (inactive) | – | – | 3.25 µM (inactive) | – | 6.35 µM (inactive) and 5.73 µM (inactive) | 3.36 µM (inactive) and 3.17 µM (inactive) | 3.67 µM (inactive) | 21.3 µM (inactive) and 17.2 µM (inactive) | – | 19.5 µM (inactive) and 24.5 µM (inactive) | 2.64 µM (inactive) and 3.4 µM (inactive) | 10.7 µM (inactive) and 10.3 µM (inactive) | 3.03 µM (inactive) and 5.11 µM (inactive) | – | 4.19 µM (inactive) and 4.68 µM (inactive) |
| CCC(=O)OC1CCn2c1nc1c2C(=O)C(C)=C(NC(C)=O)C1=O (centres undefined) | 3.59 µM (inactive) | 2.31 µM (inactive) | 1.67 µM (inactive) | 1.69 µM (inactive) | 1.69 µM (inactive) | 1.92 µM (inactive) | 1.61 µM (inactive) | 1.76 µM (inactive) | 0.198 µM (active) | 0.641 µM (active) | 1.73 µM (inactive) | 2.23 µM (inactive) | 1.89 µM (inactive) | 3.87 µM (inactive) | 1.49 µM (inactive) | 2.08 µM (inactive) | 1.69 µM (inactive) | 1.93 µM (inactive) | – |
| O=C1C(=O)N(c2ccc(Cl)cc2Cl)C(=O)C(=O)C1c1nc2ccccc2s1 | > 100 µM (inactive) | > 100 µM (inactive) | > 71.6 µM (inactive) | 80.4 µM (inactive) | > 82.2 µM (inactive) | > 100 µM (inactive) | > 100 µM (inactive) | > 64 µM (inactive) | > 78.5 µM (inactive) | > 100 µM (inactive) | > 100 µM (inactive) | > 100 µM (inactive) | > 100 µM (inactive) | > 100 µM (inactive) | > 78.3 µM (inactive) | > 43.9 µM (inactive) | > 100 µM (inactive) | 78.3 µM (inactive) | – |
| COC1=CC(=O)NCCN1 | > 100 µM (inactive) | > 100 µM (inactive) | 74.3 µM (inactive) | > 100 µM (inactive) | > 100 µM (inactive) | > 100 µM (inactive) | > 100 µM (inactive) | > 100 µM (inactive) | > 100 µM (inactive) | > 100 µM (inactive) | > 100 µM (inactive) | > 100 µM (inactive) | > 100 µM (inactive) | > 100 µM (inactive) | 18.2 µM (inactive) | > 100 µM (inactive) | > 100 µM (inactive) | > 100 µM (inactive) | – |
| CCOC(=O)CCC(NC(=O)c1ccc(/N=C/c2nc3ccccc3nc2-c2ccccc2)cc1)C(=O)OCC (centres undefined) | > 100 µM (inactive) | > 100 µM (inactive) | > 100 µM (inactive) | > 100 µM (inactive) | > 100 µM (inactive) | > 100 µM (inactive) | > 100 µM (inactive) | > 100 µM (inactive) | > 100 µM (inactive) | 13.9 µM (inactive) | 64.9 µM (inactive) | > 100 µM (inactive) | > 100 µM (inactive) | > 100 µM (inactive) | > 100 µM (inactive) | > 100 µM (inactive) | > 100 µM (inactive) | > 100 µM (inactive) | – |
| CCOCN1COCN/C1=N/C#N | > 100 µM (inactive) | > 100 µM (inactive) | > 100 µM (inactive) | > 100 µM (inactive) | > 100 µM (inactive) | > 100 µM (inactive) | > 100 µM (inactive) | > 100 µM (inactive) | > 100 µM (inactive) | > 100 µM (inactive) | 0.094 µM (active) | > 100 µM (inactive) | > 100 µM (inactive) | > 100 µM (inactive) | 17.9 µM (inactive) | > 100 µM (inactive) | > 100 µM (inactive) | > 100 µM (inactive) | – |
| CC1(C)OC(=O)[C@@](C)([C@H](O)c2ccccc2)O1 | > 100 µM (inactive) | 71 µM (inactive) | 93.8 µM (inactive) | 28.6 µM (inactive) | > 100 µM (inactive) | > 100 µM (inactive) | 28.7 µM (inactive) | > 100 µM (inactive) | > 100 µM (inactive) | > 100 µM (inactive) | > 100 µM (inactive) | > 100 µM (inactive) | > 100 µM (inactive) | > 100 µM (inactive) | > 100 µM (inactive) | > 100 µM (inactive) | > 100 µM (inactive) | 78.2 µM (inactive) | – |
| N#Cc1nn(-c2ccc(Cl)cc2)c(=N)c2c(N)n3nc(-c4ccccc4)cc3nc12 | 1 µM (active) | < 0.01 µM (active) | 1 µM (active) | 0.546 µM (active) | 1 µM (active) | < 0.01 µM (active) | 1 µM (active) | 0.83 µM (active) | 0.857 µM (active) | 0.64 µM (active) | 28.2 µM (inactive) | 0.681 µM (active) | 1 µM (active) | 0.472 µM (active) | > 100 µM (inactive) | 0.556 µM (active) | 1 µM (active) | 1 µM (active) | – |
